The text below walks through data of PubChem BioAssay AID1918996 (Molecular Pharmacology Branch, DTP, NCI, 2023).
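Also: spheroids also contain HUVEC endothelial cells and human MSC stroma; spheroids exposed to agents for seven days before luminescence viability read.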

For the first assay, the system named is 349418-098-R-PDC complex spheroid growth. As to the kind of experiment: Anticancer human tumor 349418-098-R-PDC patient-derived lung adenocarcinoma cell line growth inhibition [AhR]. The conditions noted are these: second compound 3.16 µM; first compound 0.316 µM; stronger effect = lower value. The gist of the method: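 Complex tumor spheroids co-cultured with HUVEC and human MSC stroma; AhR antagonists tested in combination with standard-of-care and investigational agents. Top concentration at or near clinical Cmax (else 10 microM), half-log dilutions; growth expressed as percent test/control.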
Broadly, the viability, T/C is the ratio of treated to control. With `COc1ccc([C@@H](O)c2cc(-c3ncnc4cc(N5CCOCC5)ccc34)c(F)cc2Cl)nn1` + CC(CO)NC(=O)c1cc(-c2ccc(Cl)cc2)nn(-c2cnn(C)c2)c1=O, the viability, T/C was 64.8%.
Turning to `COc1cccc2c1C(=O)c1c(O)c3c(c(O)c1C2=O)CC(O)(C(=O)CO)CC3OC1CC(N)C(O)C(C)O1` (centres undefined) + Cc1ccccc1N=Nc1ccc(NC(=O)c2ccnn2C)c(C)c1, the viability, T/C was 6.45%.
`Nc1ncn(C2CC(O)C(CO)O2)c(=O)n1` (centres undefined) + Cc1ccccc1N=Nc1ccc(NC(=O)c2ccnn2C)c(C)c1: the viability, T/C is 41.3%.

The same assay, now with this note: second compound 3.16 µM; first compound 1 µM; stronger effect = lower value.
For the compound `CC(C)c1c(-c2ccccc2)nc2c(C#N)c[nH]n2c1=O` + CC(CO)NC(=O)c1cc(-c2ccc(Cl)cc2)nn(-c2cnn(C)c2)c1=O, the viability, T/C is 77.2%.
For the compound `CC1COCCN1c1cc(-c2ccnn2C)c2ccnc(-c3ccn[nH]3)c2n1` (centres undefined) + CC(CO)NC(=O)c1cc(-c2ccc(Cl)cc2)nn(-c2cnn(C)c2)c1=O, the viability, T/C was 12%.
As for `COc1ccc([C@@H](O)c2cc(-c3ncnc4cc(N5CCOCC5)ccc34)c(F)cc2Cl)nn1` + CC(CO)NC(=O)c1cc(-c2ccc(Cl)cc2)nn(-c2cnn(C)c2)c1=O, the viability, T/C is 50.1%.
Regarding `COc1cccc2c1C(=O)c1c(O)c3c(c(O)c1C2=O)CC(O)(C(=O)CO)CC3OC1CC(N)C(O)C(C)O1` (centres undefined) + Cc1ccccc1N=Nc1ccc(NC(=O)c2ccnn2C)c(C)c1, the viability, T/C is 0.66%.
Still for that read-out and setting: in the case of `Nc1ncn(C2CC(O)C(CO)O2)c(=O)n1` (centres undefined) + Cc1ccccc1N=Nc1ccc(NC(=O)c2ccnn2C)c(C)c1 it was 34%.

The same assay, now with this note: second compound 3.16 µM; first compound 3.16 µM; stronger effect = lower value.
As for `CC(C)c1c(-c2ccccc2)nc2c(C#N)c[nH]n2c1=O` + CC(CO)NC(=O)c1cc(-c2ccc(Cl)cc2)nn(-c2cnn(C)c2)c1=O, the viability, T/C is 56.4%.
With `COc1ccc([C@@H](O)c2cc(-c3ncnc4cc(N5CCOCC5)ccc34)c(F)cc2Cl)nn1` + CC(CO)NC(=O)c1cc(-c2ccc(Cl)cc2)nn(-c2cnn(C)c2)c1=O, the viability, T/C was 30%.
With `COc1cccc2c1C(=O)c1c(O)c3c(c(O)c1C2=O)CC(O)(C(=O)CO)CC3OC1CC(N)C(O)C(C)O1` (centres undefined) + Cc1ccccc1N=Nc1ccc(NC(=O)c2ccnn2C)c(C)c1, the viability, T/C was 4.34%.

The assay is the same for the next values; noted with them: second compound 3.16 µM; first compound 10 µM; stronger effect = lower value.
`CC(C)c1c(-c2ccccc2)nc2c(C#N)c[nH]n2c1=O` + CC(CO)NC(=O)c1cc(-c2ccc(Cl)cc2)nn(-c2cnn(C)c2)c1=O: the viability, T/C is 60.4%.
As to `COc1ccc([C@@H](O)c2cc(-c3ncnc4cc(N5CCOCC5)ccc34)c(F)cc2Cl)nn1` + CC(CO)NC(=O)c1cc(-c2ccc(Cl)cc2)nn(-c2cnn(C)c2)c1=O, the viability, T/C is 13.5%.
With `COc1cccc2c1C(=O)c1c(O)c3c(c(O)c1C2=O)CC(O)(C(=O)CO)CC3OC1CC(N)C(O)C(C)O1` (centres undefined) + Cc1ccccc1N=Nc1ccc(NC(=O)c2ccnn2C)c(C)c1, the viability, T/C was 6.09%.

The assay is the same for the next values; noted with them: second compound 10 µM; first compound 0.00316 µM; stronger effect = lower value.
On to `CC1COCCN1c1cc(-c2ccnn2C)c2ccnc(-c3ccn[nH]3)c2n1` (centres undefined) + CC(CO)NC(=O)c1cc(-c2ccc(Cl)cc2)nn(-c2cnn(C)c2)c1=O, for which the viability, T/C is 62.8%.
For `Nc1ncn(C2CC(O)C(CO)O2)c(=O)n1` (centres undefined) + Cc1ccccc1N=Nc1ccc(NC(=O)c2ccnn2C)c(C)c1, the viability, T/C was 54.7%.

Still in this assay, the particulars now being: second compound 10 µM; first compound 0.01 µM; stronger effect = lower value.
Take `CC1COCCN1c1cc(-c2ccnn2C)c2ccnc(-c3ccn[nH]3)c2n1` (centres undefined) + CC(CO)NC(=O)c1cc(-c2ccc(Cl)cc2)nn(-c2cnn(C)c2)c1=O: the viability, T/C is 94%.
In the case of `Nc1ncn(C2CC(O)C(CO)O2)c(=O)n1` (centres undefined) + Cc1ccccc1N=Nc1ccc(NC(=O)c2ccnn2C)c(C)c1, the viability, T/C is 61.4%.

Still in this assay, the particulars now being: second compound 10 µM; first compound 0.0316 µM; stronger effect = lower value.
With `CC(C)c1c(-c2ccccc2)nc2c(C#N)c[nH]n2c1=O` + CC(CO)NC(=O)c1cc(-c2ccc(Cl)cc2)nn(-c2cnn(C)c2)c1=O, the viability, T/C was 54.3%.
As for `CC1COCCN1c1cc(-c2ccnn2C)c2ccnc(-c3ccn[nH]3)c2n1` (centres undefined) + CC(CO)NC(=O)c1cc(-c2ccc(Cl)cc2)nn(-c2cnn(C)c2)c1=O, the viability, T/C is 69.1%.
On the same count and under the same terms, in the case of `COc1ccc([C@@H](O)c2cc(-c3ncnc4cc(N5CCOCC5)ccc34)c(F)cc2Cl)nn1` + CC(CO)NC(=O)c1cc(-c2ccc(Cl)cc2)nn(-c2cnn(C)c2)c1=O it was 53.6%; in that of `COc1cccc2c1C(=O)c1c(O)c3c(c(O)c1C2=O)CC(O)(C(=O)CO)CC3OC1CC(N)C(O)C(C)O1` (centres undefined) + Cc1ccccc1N=Nc1ccc(NC(=O)c2ccnn2C)c(C)c1, 20.4%.
With `Nc1ncn(C2CC(O)C(CO)O2)c(=O)n1` (centres undefined) + Cc1ccccc1N=Nc1ccc(NC(=O)c2ccnn2C)c(C)c1, the viability, T/C is 53.9%.

Still in this assay, the particulars now being: second compound 10 µM; first compound 0.1 µM; stronger effect = lower value.
On to `CC(C)c1c(-c2ccccc2)nc2c(C#N)c[nH]n2c1=O` + CC(CO)NC(=O)c1cc(-c2ccc(Cl)cc2)nn(-c2cnn(C)c2)c1=O, for which the viability, T/C was 55.3%.
Take `CC1COCCN1c1cc(-c2ccnn2C)c2ccnc(-c3ccn[nH]3)c2n1` (centres undefined) + CC(CO)NC(=O)c1cc(-c2ccc(Cl)cc2)nn(-c2cnn(C)c2)c1=O: the viability, T/C was 25.2%.
For the compound `COc1ccc([C@@H](O)c2cc(-c3ncnc4cc(N5CCOCC5)ccc34)c(F)cc2Cl)nn1` + CC(CO)NC(=O)c1cc(-c2ccc(Cl)cc2)nn(-c2cnn(C)c2)c1=O, the viability, T/C is 52.6%.
As to `COc1cccc2c1C(=O)c1c(O)c3c(c(O)c1C2=O)CC(O)(C(=O)CO)CC3OC1CC(N)C(O)C(C)O1` (centres undefined) + Cc1ccccc1N=Nc1ccc(NC(=O)c2ccnn2C)c(C)c1, the viability, T/C is 15.6%.
The same measure, in the same setting: in the case of `Nc1ncn(C2CC(O)C(CO)O2)c(=O)n1` (centres undefined) + Cc1ccccc1N=Nc1ccc(NC(=O)c2ccnn2C)c(C)c1 it was 42.8%.

Still in this assay, the particulars now being: second compound 10 µM; first compound 0.316 µM; stronger effect = lower value.
In the case of `CC(C)c1c(-c2ccccc2)nc2c(C#N)c[nH]n2c1=O` + CC(CO)NC(=O)c1cc(-c2ccc(Cl)cc2)nn(-c2cnn(C)c2)c1=O, the viability, T/C is 46.5%.
Take `CC1COCCN1c1cc(-c2ccnn2C)c2ccnc(-c3ccn[nH]3)c2n1` (centres undefined) + CC(CO)NC(=O)c1cc(-c2ccc(Cl)cc2)nn(-c2cnn(C)c2)c1=O: the viability, T/C is 14.2%.
As to `COc1ccc([C@@H](O)c2cc(-c3ncnc4cc(N5CCOCC5)ccc34)c(F)cc2Cl)nn1` + CC(CO)NC(=O)c1cc(-c2ccc(Cl)cc2)nn(-c2cnn(C)c2)c1=O, the viability, T/C was 53.3%.
As to `COc1cccc2c1C(=O)c1c(O)c3c(c(O)c1C2=O)CC(O)(C(=O)CO)CC3OC1CC(N)C(O)C(C)O1` (centres undefined) + Cc1ccccc1N=Nc1ccc(NC(=O)c2ccnn2C)c(C)c1, the viability, T/C was 4.32%.
In the case of `Nc1ncn(C2CC(O)C(CO)O2)c(=O)n1` (centres undefined) + Cc1ccccc1N=Nc1ccc(NC(=O)c2ccnn2C)c(C)c1, the viability, T/C is 37.2%.

The same assay, now with this note: second compound 10 µM; first compound 1 µM; stronger effect = lower value.
As for `CC(C)c1c(-c2ccccc2)nc2c(C#N)c[nH]n2c1=O` + CC(CO)NC(=O)c1cc(-c2ccc(Cl)cc2)nn(-c2cnn(C)c2)c1=O, the viability, T/C was 45%.
On the same count and under the same terms, then `CC1COCCN1c1cc(-c2ccnn2C)c2ccnc(-c3ccn[nH]3)c2n1` (centres undefined) + CC(CO)NC(=O)c1cc(-c2ccc(Cl)cc2)nn(-c2cnn(C)c2)c1=O, with 10.1%; and `COc1ccc([C@@H](O)c2cc(-c3ncnc4cc(N5CCOCC5)ccc34)c(F)cc2Cl)nn1` + CC(CO)NC(=O)c1cc(-c2ccc(Cl)cc2)nn(-c2cnn(C)c2)c1=O, with 36.9%; and `COc1cccc2c1C(=O)c1c(O)c3c(c(O)c1C2=O)CC(O)(C(=O)CO)CC3OC1CC(N)C(O)C(C)O1` (centres undefined) + Cc1ccccc1N=Nc1ccc(NC(=O)c2ccnn2C)c(C)c1, with 1.12%.
Turning to `Nc1ncn(C2CC(O)C(CO)O2)c(=O)n1` (centres undefined) + Cc1ccccc1N=Nc1ccc(NC(=O)c2ccnn2C)c(C)c1, the viability, T/C was 29.5%.

The same assay, now with this note: second compound 10 µM; first compound 3.16 µM; stronger effect = lower value.
As for `CC(C)c1c(-c2ccccc2)nc2c(C#N)c[nH]n2c1=O` + CC(CO)NC(=O)c1cc(-c2ccc(Cl)cc2)nn(-c2cnn(C)c2)c1=O, the viability, T/C is 43.6%.
As for `COc1ccc([C@@H](O)c2cc(-c3ncnc4cc(N5CCOCC5)ccc34)c(F)cc2Cl)nn1` + CC(CO)NC(=O)c1cc(-c2ccc(Cl)cc2)nn(-c2cnn(C)c2)c1=O, the viability, T/C is 17%.
With `COc1cccc2c1C(=O)c1c(O)c3c(c(O)c1C2=O)CC(O)(C(=O)CO)CC3OC1CC(N)C(O)C(C)O1` (centres undefined) + Cc1ccccc1N=Nc1ccc(NC(=O)c2ccnn2C)c(C)c1, the viability, T/C was 3.09%.

Still in this assay, the particulars now being: second compound 10 µM; first compound 10 µM; stronger effect = lower value.
For the compound `CC(C)c1c(-c2ccccc2)nc2c(C#N)c[nH]n2c1=O` + CC(CO)NC(=O)c1cc(-c2ccc(Cl)cc2)nn(-c2cnn(C)c2)c1=O, the viability, T/C was 45.5%.
Same read-out and setting: then `COc1ccc([C@@H](O)c2cc(-c3ncnc4cc(N5CCOCC5)ccc34)c(F)cc2Cl)nn1` + CC(CO)NC(=O)c1cc(-c2ccc(Cl)cc2)nn(-c2cnn(C)c2)c1=O, with 13.5%; and `COc1cccc2c1C(=O)c1c(O)c3c(c(O)c1C2=O)CC(O)(C(=O)CO)CC3OC1CC(N)C(O)C(C)O1` (centres undefined) + Cc1ccccc1N=Nc1ccc(NC(=O)c2ccnn2C)c(C)c1, with 7.07%.
